Test system: MV-4-11 cells
Test: Gene expression microarray analysis (Affymetrix PrimeView) and GSEA
Format: cell-based, human
Set-up: RFU PODN (11730768_x_at) / Fold change /veh PODN (11730768_x_at) / RFU LINC00158 (11744669_a_at) / Fold change /veh LINC00158 (11744669_a_at) / RFU DUSP10 (11751237_a_at) / Fold change /veh DUSP10 (11751237_a_at) / RFU ID3 (11757404_x_at) / Fold change /veh ID3 (11757404_x_at) / RFU PLEKHG5 (11737974_s_at) / Fold change /veh PLEKHG5 (11737974_s_at) / RFU LRRC4B (11730491_at) / Fold change /veh LRRC4B (11730491_at) / RFU GIMAP4 (11747438_a_at) / Fold change /veh GIMAP4 (11747438_a_at) / RFU KRT8 (11758183_x_at) / Fold change /veh KRT8 (11758183_x_at) / RFU CNN1 (11734310_a_at) / Fold change /veh CNN1 (11734310_a_at) / RFU VPS37D (11726825_at) / Fold change /veh VPS37D (11726825_at) / RFU C10orf10 (11716522_x_at) / Fold change /veh C10orf10 (11716522_x_at) / RFU KIR2DL2 /// KIR2DL4 /// KIR2DL5A /// KIR2DL5B /// KIR2DS1 /// KIR2DS2 /// KIR2DS3 /// KIR2DS4 /// KIR3DL3 /// KIR3DL3 /// KIR3DS1 (11738374_at) / Fold change /veh KIR2DL2 /// KIR2DL4 /// KIR2DL5A /// KIR2DL5B /// KIR2DS1 /// KIR2DS2 /// KIR2DS3 /// KIR2DS4 /// KIR3DL3 /// KIR3DL3 /// KIR3DS1 (11738374_at) / RFU C1QL1 (11718748_at) / Fold change /veh C1QL1 (11718748_at) / RFU TMPRSS4 (11747572_a_at) / Fold change /veh TMPRSS4 (11747572_a_at) / RFU HAMP (11756126_x_at) / Fold change /veh HAMP (11756126_x_at) / RFU RNFT2 (11725882_a_at) / Fold change /veh RNFT2 (11725882_a_at) / RFU NR4A2 (11747474_a_at) / Fold change /veh NR4A2 (11747474_a_at) / RFU ABCC12 (11746883_a_at) / Fold change /veh ABCC12 (11746883_a_at) / RFU TMEM136 (11760407_x_at) / Fold change /veh TMEM136 (11760407_x_at) / RFU CLDN22 /// WWC2 (11732394_at) / Fold change /veh CLDN22 /// WWC2 (11732394_at) / RFU HLA-DPB1 (11760878_x_at) / Fold change /veh HLA-DPB1 (11760878_x_at) / RFU SPINT1 (11716480_a_at) / Fold change /veh SPINT1 (11716480_a_at) / RFU GAP43 (11754022_s_at) / Fold change /veh GAP43 (11754022_s_at) / RFU A4GNT (11735810_at) / Fold change /veh A4GNT (11735810_at) / RFU PRB3 (11715151_x_at) / Fold change /veh PRB3 (11715151_x_at) / RFU TUBB4B (11761932_at) / Fold change /veh TUBB4B (11761932_at) / RFU CAPN14 (11732068_a_at) / Fold change /veh CAPN14 (11732068_a_at) / RFU TMCC2 (11721928_a_at) / Fold change /veh TMCC2 (11721928_a_at) / RFU IRGQ (11745062_a_at) / Fold change /veh IRGQ (11745062_a_at) / RFU FAM174B (11720279_a_at) / Fold change /veh FAM174B (11720279_a_at) / RFU TMPRSS4 (11748680_a_at) / Fold change /veh TMPRSS4 (11748680_a_at) / RFU FAM212B (11763350_a_at) / Fold change /veh FAM212B (11763350_a_at) / RFU PLEKHG5 (11743358_a_at) / Fold change /veh PLEKHG5 (11743358_a_at) / RFU ZSCAN30 (11745921_a_at) / Fold change /veh ZSCAN30 (11745921_a_at) / RFU CMKLR1 (11741424_a_at) / Fold change /veh CMKLR1 (11741424_a_at) / RFU LOC101060620 /// MAPK8IP1 (11723275_at) / Fold change /veh LOC101060620 /// MAPK8IP1 (11723275_at) / RFU SPTSSB (11747773_x_at) / Fold change /veh SPTSSB (11747773_x_at) / RFU PRSS12 (11739890_at) / Fold change /veh PRSS12 (11739890_at) / RFU BIN1 (11741810_x_at) / Fold change /veh BIN1 (11741810_x_at) / RFU WNT11 (11732464_a_at) / Fold change /veh WNT11 (11732464_a_at) / RFU C10orf10 (11716521_a_at) / Fold change /veh C10orf10 (11716521_a_at) / RFU C5orf56 (11738089_at) / Fold change /veh C5orf56 (11738089_at) / RFU CYB561 (11721691_x_at) / Fold change /veh CYB561 (11721691_x_at) / RFU ANKRD19P (11752326_a_at) / Fold change /veh ANKRD19P (11752326_a_at) / RFU OR2T12 /// OR2T33 /// OR2T8 (11738714_s_at) / Fold change /veh OR2T12 /// OR2T33 /// OR2T8 (11738714_s_at) / RFU VCAN (11748164_a_at) / Fold change /veh VCAN (11748164_a_at) / RFU JSRP1 (11732532_at) / Fold change /veh JSRP1 (11732532_at) / RFU KRTAP10-11 (11738290_x_at) / Fold change /veh KRTAP10-11 (11738290_x_at) / RFU MYO3A (11730013_a_at) / Fold change /veh MYO3A (11730013_a_at) / RFU EBF3 (11725865_a_at) / Fold change /veh EBF3 (11725865_a_at) / RFU CAMK2N1 (11719241_x_at) / Fold change /veh CAMK2N1 (11719241_x_at) / RFU C5orf56 (11738088_a_at) / Fold change /veh C5orf56 (11738088_a_at) / RFU OLFML3 (11715873_a_at) / Fold change /veh OLFML3 (11715873_a_at) / RFU LOC100653217 /// NTM (11731650_a_at) / Fold change /veh LOC100653217 /// NTM (11731650_a_at) / RFU MAPK11 (11762145_a_at) / Fold change /veh MAPK11 (11762145_a_at) / RFU FIZ1 (11724087_x_at) / Fold change /veh FIZ1 (11724087_x_at) / RFU OASL (11726364_x_at) / Fold change /veh OASL (11726364_x_at) / RFU SOX15 (11748057_x_at) / Fold change /veh SOX15 (11748057_x_at) / RFU CD79A (11719716_a_at) / Fold change /veh CD79A (11719716_a_at) / RFU HIST1H1D (11736915_at) / Fold change /veh HIST1H1D (11736915_at) / RFU CASKIN2 (11723855_a_at) / Fold change /veh CASKIN2 (11723855_a_at) / RFU LOC730098 (11760151_x_at) / Fold change /veh LOC730098 (11760151_x_at) / RFU OR4N2 (11742367_at) / Fold change /veh OR4N2 (11742367_at) / RFU PRRT2 (11749266_a_at) / Fold change /veh PRRT2 (11749266_a_at) / RFU SNX32 (11753110_a_at) / Fold change /veh SNX32 (11753110_a_at) / RFU CDHR5 (11726645_a_at) / Fold change /veh CDHR5 (11726645_a_at) / RFU RCAN1 (11760418_a_at) / Fold change /veh RCAN1 (11760418_a_at) / RFU FAM167A (11723789_a_at) / Fold change /veh FAM167A (11723789_a_at) / RFU FAM26E (11764081_at) / Fold change /veh FAM26E (11764081_at) / RFU ISYNA1 (11749810_s_at) / Fold change /veh ISYNA1 (11749810_s_at) / RFU ACY1 (11761880_at) / Fold change /veh ACY1 (11761880_at) / RFU 11764098_at / Fold change /veh 11764098_at / RFU SAMD14 (11745864_x_at) / Fold change /veh SAMD14 (11745864_x_at) / RFU NPB (11741838_a_at) / Fold change /veh NPB (11741838_a_at) / RFU TMPRSS6 (11731388_a_at) / Fold change /veh TMPRSS6 (11731388_a_at) / RFU KRTAP10-2 (11738614_at) / Fold change /veh KRTAP10-2 (11738614_at) / RFU ARHGAP8 /// PRR5-ARHGAP8 (11727945_x_at) / Fold change /veh ARHGAP8 /// PRR5-ARHGAP8 (11727945_x_at) / RFU KRTAP5-7 /// NADSYN1 (11734609_at) / Fold change /veh KRTAP5-7 /// NADSYN1 (11734609_at) / RFU RASL12 (11751679_a_at) / Fold change /veh RASL12 (11751679_a_at) / RFU CDKN2B (11736163_a_at) / Fold change /veh CDKN2B (11736163_a_at) / RFU PRF1 (11729649_at) / Fold change /veh PRF1 (11729649_at) / RFU, ZNF638 /// ZNF638-IT1 / Fold change vs veh, ZNF638 /// ZNF638-IT1 / RFU, PANK3 / Fold change vs veh, PANK3 / RFU, SH3YL1 / Fold change vs veh, SH3YL1 / RFU, ZEB2 / Fold change vs veh, ZEB2 / RFU, NRIP1 / Fold change vs veh, NRIP1 / RFU, PTTG1IP / Fold change vs veh, PTTG1IP / RFU, CAPN2 / Fold change vs veh, CAPN2 / RFU, MED14 / Fold change vs veh, MED14 / RFU, SNORA58 / Fold change vs veh, SNORA58 / RFU, C1orf63 / Fold change vs veh, C1orf63 / RFU, LRRFIP1 / Fold change vs veh, LRRFIP1 / RFU, NDUFAF7 / Fold change vs veh, NDUFAF7 / RFU, SLC12A2 / Fold change vs veh, SLC12A2 / RFU, IBTK / Fold change vs veh, IBTK / RFU, ESF1 / Fold change vs veh, ESF1 / Fold change vs veh, TMEM50B / RFU, TAOK1 / Fold change vs veh, TAOK1 / RFU, ACBD3 / Fold change vs veh, ACBD3 / RFU, TMA16 / Fold change vs veh, TMA16 / RFU, RWDD3 / Fold change vs veh, RWDD3 / RFU, BCAT1 / Fold change vs veh, BCAT1 / RFU, EDEM3 / Fold change vs veh, EDEM3 / RFU, TMEM33 / Fold change vs veh, TMEM33 / RFU, WDR75 / Fold change vs veh, WDR75 / RFU, AHCTF1 / Fold change vs veh, AHCTF1 / RFU, TFRC / Fold change vs veh, TFRC / RFU, ZDHHC17 / Fold change vs veh, ZDHHC17 / RFU, NOM1 / Fold change vs veh, NOM1 / RFU, ARL8B / Fold change vs veh, ARL8B / RFU, ZBTB11 / Fold change vs veh, ZBTB11 / RFU, TAMM41 / Fold change vs veh, TAMM41 / RFU, KIAA1704 /// LOC100996395 / Fold change vs veh, KIAA1704 /// LOC100996395 / RFU, ING1 / Fold change vs veh, ING1 / RFU, TRMT61B / Fold change vs veh, TRMT61B / RFU, FUBP3 / Fold change vs veh, FUBP3 / RFU, TP53 / Fold change vs veh, TP53 / RFU, TNKS2 / Fold change vs veh, TNKS2 / RFU, ZFP14 / Fold change vs veh, ZFP14 / RFU, ACTR2 / Fold change vs veh, ACTR2 / RFU, PPP3R1 / Fold change vs veh, PPP3R1 / RFU, PIK3R1 / Fold change vs veh, PIK3R1 / RFU, HNRNPA1 / Fold change vs veh, HNRNPA1 / RFU, RNF170 / Fold change vs veh, RNF170 / RFU, ZNF28 / Fold change vs veh, ZNF28 / RFU, RNGTT / Fold change vs veh, RNGTT / RFU, OGT / Fold change vs veh, OGT / RFU, BRD1 / Fold change vs veh, BRD1 / RFU, MARS / Fold change vs veh, MARS / RFU, ZNF655 / Fold change vs veh, ZNF655 / RFU, FAHD1 / Fold change vs veh, FAHD1 / RFU, BDP1 / Fold change vs veh, BDP1 / RFU, LRRCC1 / Fold change vs veh, LRRCC1 / RFU, ARID1A / Fold change vs veh, ARID1A / RFU, ZNF146 / Fold change vs veh, ZNF146 / RFU, ZNF330 / Fold change vs veh, ZNF330 / RFU, GPN3 / Fold change vs veh, GPN3 / RFU, C9orf123 / Fold change vs veh, C9orf123 / RFU, N4BP2L2 / Fold change vs veh, N4BP2L2 / RFU, ARFIP1 / Fold change vs veh, ARFIP1 / RFU, FAM179B / Fold change vs veh, FAM179B / RFU, BCL10 / Fold change vs veh, BCL10 / RFU, UHRF1BP1L / Fold change vs veh, UHRF1BP1L / RFU, BET1 / Fold change vs veh, BET1 / RFU, CNOT2 / Fold change vs veh, CNOT2 / RFU, ZNF268 / Fold change vs veh, ZNF268 / Fold change vs veh, ZNF507 / RFU, DGCR2 / Fold change vs veh, DGCR2 / RFU, WDSUB1 / Fold change vs veh, WDSUB1 / Fold change vs veh, HSP90B1 /// MIR3652 / RFU, ADSS / Fold change vs veh, ADSS / RFU, GK / Fold change vs veh, GK / RFU, ZNF148 / Fold change vs veh, ZNF148 / RFU, TAF9 / Fold change vs veh, TAF9 / RFU, SLC1A5 / Fold change vs veh, SLC1A5 / RFU, SLMO2 / Fold change vs veh, SLMO2 / RFU, ABCC4 / Fold change vs veh, ABCC4 / RFU, LOC101060439 /// RAP1B / Fold change vs veh, LOC101060439 /// RAP1B / RFU, RFX7 / Fold change vs veh, RFX7 / RFU, GTPBP10 / Fold change vs veh, GTPBP10 / RFU, CNEP1R1 / Fold change vs veh, CNEP1R1 / RFU, BIVM-ERCC5 /// ERCC5 / Fold change vs veh, BIVM-ERCC5 /// ERCC5 / RFU, ILF3 / Fold change vs veh, ILF3 / RFU 11762660_at / Fold change /veh 11762660_at / RFU VCAN (11757783_s_at) / Fold change /veh VCAN (11757783_s_at) / RFU DDX43 (11728927_at) / Fold change /veh DDX43 (11728927_at) / RFU KRT8 (11758188_x_at) / Fold change /veh KRT8 (11758188_x_at) / RFU NKD1 (11759106_at) / Fold change /veh NKD1 (11759106_at) / RFU SRD5A1 (11742802_a_at) / Fold change /veh SRD5A1 (11742802_a_at) / RFU TPSAB1 /// TPSB2 (11721975_s_at) / Fold change /veh TPSAB1 /// TPSB2 (11721975_s_at) / RFU GSTM3 (11746129_a_at) / Fold change /veh GSTM3 (11746129_a_at) / RFU IL23R (11737362_x_at) / Fold change /veh IL23R (11737362_x_at) / RFU TMEM51 (11727254_a_at) / Fold change /veh TMEM51 (11727254_a_at) / RFU PIWIL2 (11732686_x_at) / Fold change /veh PIWIL2 (11732686_x_at) / RFU ORM1 (11744905_x_at) / Fold change /veh ORM1 (11744905_x_at) / RFU CCDC152 (11743942_at) / Fold change /veh CCDC152 (11743942_at) / RFU ECM1 (11717891_a_at) / Fold change /veh ECM1 (11717891_a_at) / RFU IL23R (11748794_a_at) / Fold change /veh IL23R (11748794_a_at) / RFU TNFAIP8L3 (11732012_x_at) / Fold change /veh TNFAIP8L3 (11732012_x_at) / RFU MBOAT4 (11741988_at) / Fold change /veh MBOAT4 (11741988_at) / RFU 11764193_at / Fold change /veh 11764193_at / RFU TMEM53 (11763286_at) / Fold change /veh TMEM53 (11763286_at) / RFU MAGEB2 (11727129_at) / Fold change /veh MAGEB2 (11727129_at) / RFU TMEM200A (11744735_a_at) / Fold change /veh TMEM200A (11744735_a_at) / RFU CCDC152 (11751479_a_at) / Fold change /veh CCDC152 (11751479_a_at) / RFU FAM211A (11726209_a_at) / Fold change /veh FAM211A (11726209_a_at) / RFU RGS16 (11746705_a_at) / Fold change /veh RGS16 (11746705_a_at) / RFU VCAN (11755009_s_at) / Fold change /veh VCAN (11755009_s_at) / RFU RHOB (11743442_s_at) / Fold change /veh RHOB (11743442_s_at) / RFU RGS16 (11720943_a_at) / Fold change /veh RGS16 (11720943_a_at) / RFU RGS16 (11720944_at) / Fold change /veh RGS16 (11720944_at) / RFU, VPS4B / Fold change vs veh, VPS4B / RFU, CREB1 / Fold change vs veh, CREB1 / RFU, DNAJC13 / Fold change vs veh, DNAJC13 / RFU, GNAQ / Fold change vs veh, GNAQ / RFU, CDK5R1 / Fold change vs veh, CDK5R1 / RFU, ZRANB3 / Fold change vs veh, ZRANB3 / RFU, CUL4A / Fold change vs veh, CUL4A / RFU, CCNY / Fold change vs veh, CCNY / RFU, UFL1 / Fold change vs veh, UFL1 / RFU, COG3 / Fold change vs veh, COG3 / RFU, DIAPH2 / Fold change vs veh, DIAPH2 / RFU, SKA2 / Fold change vs veh, SKA2 / RFU, AFF3 / Fold change vs veh, AFF3 / RFU, LMF1 / Fold change vs veh, LMF1 / RFU, IPO11 / Fold change vs veh, IPO11 / RFU, DFFB / Fold change vs veh, DFFB / RFU, FOXP1 / Fold change vs veh, FOXP1 / RFU, CARD8 / Fold change vs veh, CARD8 / RFU, STRN3 / Fold change vs veh, STRN3 / RFU, ADK / Fold change vs veh, ADK / RFU, RASSF2 / Fold change vs veh, RASSF2 / RFU, WIPF1 / Fold change vs veh, WIPF1 / RFU, LARP1B / Fold change vs veh, LARP1B / RFU, RASA1 / Fold change vs veh, RASA1 / RFU, RB1 / Fold change vs veh, RB1 / RFU, PPFIA1 / Fold change vs veh, PPFIA1 / RFU, MAT2A / Fold change vs veh, MAT2A / RFU, CCT5 / Fold change vs veh, CCT5 / RFU, WDR92 / Fold change vs veh, WDR92 / RFU, CUX1 / Fold change vs veh, CUX1 / RFU, TTC7A / Fold change vs veh, TTC7A / RFU, TMEM135 / Fold change vs veh, TMEM135 / RFU, DEPTOR / Fold change vs veh, DEPTOR / RFU, CPM / Fold change vs veh, CPM / RFU, DNAJB6 / Fold change vs veh, DNAJB6 / RFU, CACNA2D3 / Fold change vs veh, CACNA2D3 / RFU, DTX4 / Fold change vs veh, DTX4 / RFU, TFCP2 / Fold change vs veh, TFCP2 / RFU, GMCL1 /// GMCL1P1 / Fold change vs veh, GMCL1 /// GMCL1P1 / RFU, AEBP2 / Fold change vs veh, AEBP2 / RFU, SNHG1 /// SNORD22 /// SNORD25 /// SNORD26 /// SNORD27 /// SNORD28 /// SNORD29 /// SNORD31 / Fold change vs veh, SNHG1 /// SNORD22 /// SNORD25 /// SNORD26 /// SNORD27 /// SNORD28 /// SNORD29 /// SNORD31 / Fold change (Aza/veh), C12orf56 (ProbeSet 11735607_a_at) / Fold change (ACY-1035/veh), C12orf56 (ProbeSet 11735607_a_at) / Fold change (Aza/veh), FGFR1OP (ProbeSet 11751329_s_at) / Fold change (ACY-1035/veh), FGFR1OP (ProbeSet 11751329_s_at) / Fold change (Aza/veh), VPS36 (ProbeSet 11739960_a_at) / Fold change (ACY-1035/veh), VPS36 (ProbeSet 11739960_a_at) / RFU SYPL1 (11715823_x_at) / Fold change /veh SYPL1 (11715823_x_at) / RFU IGFBP7 (11715501_s_at) / Fold change /veh IGFBP7 (11715501_s_at) / RFU REEP3 (11722064_at) / Fold change /veh REEP3 (11722064_at) / RFU IGLL1 (11728026_x_at) / Fold change /veh IGLL1 (11728026_x_at): dose or concentration left out as unconfirmed
Conditions: ProbeSet 11760938_a_at; LIST D

Nc1ncn([C@@H]2O[C@H](CO)[C@@H](O)[C@H]2O)c(=O)n1 [azacitidine] was tested, and the “RFU, MAT2A” value was 129.03 RFU.
